Tests used:
CmeB = target: T1, CmeB (Campylobacter jejuni, UniProt Q8RTE4); assay: isothermal titration calorimetry; assay type: binding; settings: 20 mM Na-HEPES pH 7.5, 0.03% DDM, room temperature; 20 μM monomer in cell; no cyclooctatetraene
T1 construct: full-length, N-terminal 6xHis (pET15b), E. coli BL21(DE3)deltaacrB host; homotrimer

[1] = target: Campylobacter jejuni CmeB multidrug efflux pump (Campylobacter jejuni) (UniProt Q8RTE4); assay: crystal structure

C[C@H](CCC(=O)NCCS(=O)(=O)O)[C@H]1CC[C@H]2[C@@H]3CC[C@@H]4C[C@H](O)CC[C@]4(C)[C@H]3C[C@H](O)[C@]12C [taurodeoxycholate]
KD (CmeB): examine the binding of taurodeoxycholate to the purified CmeB transporter

Campylobacter jejuni CmeB multidrug efflux pump (from UniProt Q8RTE4) (natural protein)
stoichiometry N [1]: 3

— paper PMC5537355, “Structures and transport dynamics of a Campylobacter jejuni multidrug efflux pump” (Nature Communications, 2017)
